# Reference: US11840686B2, “Modulation of prekallikrein (PKK) expression” (Ionis Pharmaceuticals, Inc., priority 2013, dated 2023)
# Values joined by “and” are separate entries in the source; they are usually repeats but may differ in a detail not shown here. Equal entries are not always repeated. Strand notation (5' to 3'): a small letter for the sugar, then the base; units joined by * are phosphorothioate-linked, units joined directly phosphodiester-linked; [ ] holds rarer units or linkages, { } end groups; capitals alone tell only the bases. e = 2'-O-(2-methoxyethyl) (MOE); [5mC] = 5-methylcytosine; d = 2'-deoxy (DNA)
# Legend:
# human PKK mRNA [1] = experiment: Antisense inhibition of human PKK mRNA in HepaRG cells, 5,000 nM (Example 2); format: cell-based
# How it was run: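 HepaRG cells, 20,000 per well, were electroporated with 5,000 nM MOE gapmer (phosphorothioate, 5-methylcytosine) and incubated about 24 hours. PKK mRNA was quantified by qRT-PCR with primer probe set RTS3454, normalized to RIBOGREEN total RNA, and expressed as percent inhibition versus untreated controls.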
# human PKK mRNA [2] = experiment: Dose-dependent antisense inhibition of human PKK in HepaRG cells, 0.19-5.00 uM (Example 5); format: cell-based
# How it was run: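 HepaRG cells (20,000/well) were electroporated with antisense oligonucleotide at 0.19, 0.56, 1.67 and 5.00 μM and treated for about 16 hours. PKK mRNA was quantified by qRT-PCR with primer probe set RTS3454, normalised to RIBOGREEN total RNA, and IC50 was derived per oligonucleotide.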
# vascular leakage = experiment: Vascular leakage, plasma Evans Blue OD620, captopril model (Example 13); format: in vivo, mouse; settings: for Percentage of OD620 nm of Evans Blue dye compared to the PBS basal control, Plasma: captopril Yes
# Method: Groups 4, 5, 6, 7, 8, and 9 consisted of 8 mice each and were treated with 2.5 mg/kg, 5 mg/kg, 10 mg/kg, 20 mg/kg, 40 mg/kg, or 80 mg/kg (corresponding to 5 mg/kg, 10 mg/kg, 20 mg/kg, 40 mg/kg, 80 mg/kg, or 160 mg/kg per week), respectively of ISIS 482584 administered subcutaneously twice a week for 3 weeks. At the end of the treatment period, the mice of all the groups were intraperitoneally administered 20 μg of captopril. Groups 4-9 served as the experimental treatment groups for examining the effect of varying doses of ISIS 482584 on captopril-induced vascular permeability.
# All the groups were then injected with 30 mg/kg of Evans Blue solution in the tail vein. The mice were sacrificed 30 min after the Evans Blue solution administration and colons, feet, ears, and intestines were harvested. Blood samples were taken through cardiac puncture.
# The blood drawn through cardiac puncture was immediately mixed with 3 times the volume of ice-cold ethanol. The solution was centrifuged at 15,000 g for 20 minutes at 4° C. to remove cell debris and precipitated plasma proteins. The ethanol extracts were further purified by ultra-filtration through a 10 kDa MWCO filter. The color intensity of the ethanol extracted plasma solution was then measured at OD620 nm. The results are presented in Table 67 as percentage increase or decrease of the OD values of the Group 1 PBS control.
# [3] = HepaRG cells, electroporation, approximately 16 hours, Table 35
# [4] = HepaRG cells, electroporation, approximately 16 hours, Table 36
# [5] = HepaRG cells, electroporation, approximately 16 hours, Table 37
# [6] = HepaRG cells, electroporation, approximately 16 hours, Table 38
# [7] = HepaRG cells, electroporation, approximately 16 hours, Table 39
# [8] = HepaRG cells, electroporation, approximately 16 hours, Table 40
# [9] = Table 34, HepaRG, electroporation, ~16 h
compound,measurement,setting,value
531231 (eT*eA*eT*e[5mC]*eA*d[5mC]*dT*dG*dT*dA*d[5mC]*dT*dA*dG*dT*eT*eT*e[5mC]*e[5mC]*eT) [compound 531231],% inhibition,"human PKK mRNA [1]; HepaRG cells, 5,000 nM antisense oligonucleotide, human PKK mRNA, Table 18",90%
same,% inhibition,"human PKK mRNA [1]; HepaRG cells, 5,000 nM antisense oligonucleotide, 5-10-5 gapmers, Table 16",93%
same,% inhibition,"human PKK mRNA [1]; HepaRG cells, 5,000 nM antisense oligonucleotide, 5-10-5 gapmers, Table 17",91%
same,% inhibition,"human PKK mRNA [1]; HepaRG cells, electroporation with 5,000 nM antisense oligonucleotide, approximately 24 hours, PKK mRNA by RT-PCR (RTS3454), relative to untreated control cells, Table 5 experiment",98%
same,% inhibition,"human PKK mRNA [1]; HepaRG cells, electroporation with 5,000 nM antisense oligonucleotide, approximately 24 hours, PKK mRNA by RT-PCR (RTS3454), relative to untreated control cells, Table 6 experiment",86%
same,% inhibition,"human PKK mRNA [1]; HepaRG cells, electroporation, 5,000 nM antisense oligonucleotide, approx. 24 hours, primer probe set RTS3454, relative to untreated control cells, Table 11",90%
same,% inhibition,"human PKK mRNA [1]; HepaRG cells, electroporation, 5,000 nM antisense oligonucleotide, approx. 24 hours, primer probe set RTS3454, relative to untreated control cells, Table 12",90%
same,% inhibition,"human PKK mRNA [1]; Table 7, HepaRG cells, electroporation with 5,000 nM antisense oligonucleotide, approx. 24 hours, PKK mRNA by RT-PCR (RTS3454), relative to untreated control cells",88%
same,% inhibition,"human PKK mRNA [1]; Table 8, HepaRG cells, electroporation with 5,000 nM antisense oligonucleotide, approx. 24 hours, PKK mRNA by RT-PCR (RTS3454), relative to untreated control cells",95%
same,% inhibition,"human PKK mRNA [1]; Table 9 experiment, HepaRG cells, 20,000 cells per well, electroporation with 5,000 nM antisense oligonucleotide, approx. 24 hours, PKK mRNA by RT-PCR (RTS3454), relative to untreated control cells",96%
same,% inhibition,"human PKK mRNA [1]; Table 10 experiment, HepaRG cells, 20,000 cells per well, electroporation with 5,000 nM antisense oligonucleotide, approx. 24 hours, PKK mRNA by RT-PCR (RTS3454), relative to untreated control cells",72%
same,% inhibition,"human PKK mRNA [1]; Table 13, human PKK mRNA in HepaRG cells, 5-10-5 gapmers",85%
same,% inhibition,"human PKK mRNA [1]; human PKK mRNA in HepaRG cells, 5-10-5 gapmers, Table 14",85%
same,% inhibition,"human PKK mRNA [1]; human PKK mRNA, HepaRG cells, 5-10-5 motif oligonucleotides targeting SEQ ID NO: 1 and 10",93%
same,percent inhibition of PKK at 0.19 μM,human PKK mRNA [2]; [3],25%
same,percent inhibition of PKK at 0.19 μM,human PKK mRNA [2]; [4],58%
same,percent inhibition of PKK at 0.19 μM,human PKK mRNA [2]; [5],34%
same,percent inhibition of PKK at 0.19 μM,human PKK mRNA [2]; [6],21%
same,percent inhibition of PKK at 0.19 μM,human PKK mRNA [2]; [7],21%
same,percent inhibition of PKK at 0.19 μM,human PKK mRNA [2]; [8],6%
same,percent inhibition of PKK at 0.56 μM,human PKK mRNA [2]; [3],34%
same,percent inhibition of PKK at 0.56 μM,human PKK mRNA [2]; [4],64%
same,percent inhibition of PKK at 0.56 μM,human PKK mRNA [2]; [5],47%
same,percent inhibition of PKK at 0.56 μM,human PKK mRNA [2]; [6],45%
same,percent inhibition of PKK at 0.56 μM,human PKK mRNA [2]; [7],39%
same,percent inhibition of PKK at 0.56 μM,human PKK mRNA [2]; [8],38%
same,percent inhibition of PKK at 1.67 μM,human PKK mRNA [2]; [3],84%
same,percent inhibition of PKK at 1.67 μM,human PKK mRNA [2]; [4],77%
same,percent inhibition of PKK at 1.67 μM,human PKK mRNA [2]; [5],72%
same,percent inhibition of PKK at 1.67 μM,human PKK mRNA [2]; [6],67%
same,percent inhibition of PKK at 1.67 μM,human PKK mRNA [2]; [7],90%
same,percent inhibition of PKK at 1.67 μM,human PKK mRNA [2]; [8],74%
same,percent inhibition of PKK at 5.00 μM,human PKK mRNA [2]; [3],92%
same,percent inhibition of PKK at 5.00 μM,human PKK mRNA [2]; [4],98%
same,percent inhibition of PKK at 5.00 μM,human PKK mRNA [2]; [6],96%
same,percent inhibition of PKK at 5.00 μM,human PKK mRNA [2]; [7],97%
same,percent inhibition of PKK at 5.00 μM,human PKK mRNA [2]; [8],95%
same,percent inhibition of PKK at 5.00 μM,"human PKK mRNA [2]; HepaRG cells, electroporation, approximately 16 hours, Table 41",97%
same,percent inhibition of PKK at 0.19 0μM,"human PKK mRNA [2]; 0.19 0μM, HepaRG cells, electroporation, approximately 16 hours, Table 41",25%
same,percent inhibition of PKK at 0.56 0μM,"human PKK mRNA [2]; 0.56 0μM, HepaRG cells, electroporation, approximately 16 hours, Table 41",55%
same,percent inhibition of PKK at 1.67 1μM,"human PKK mRNA [2]; 1.67 1μM, HepaRG cells, electroporation, approximately 16 hours, Table 41",89%
same,IC50,"human PKK mRNA [2]; 4 point dose response, HepaRG cells, Table 35",700 nM
same,IC50,"human PKK mRNA [2]; 4 point dose response, HepaRG cells, Table 37",500 nM
same,IC50,"human PKK mRNA [2]; 4 point dose response, HepaRG cells, Table 38",700 nM
same,IC50,"human PKK mRNA [2]; 4 point dose response, HepaRG cells, Table 39",600 nM
same,IC50,"human PKK mRNA [2]; 4 point dose response, HepaRG cells, Table 40",800 nM
same,IC50,"human PKK mRNA [2]; 4 point dose response, HepaRG cells, Table 41",500 nM
same,"percent inhibition of PKK mRNA, 0.19 μM","human PKK mRNA [2]; HepaRG cells, 0.19 μM antisense oligonucleotide",7% and 6%
same,"percent inhibition of PKK mRNA, 0.56 μM","human PKK mRNA [2]; HepaRG cells, 0.56 μM antisense oligonucleotide",39% and 56%
same,"percent inhibition of PKK mRNA, 1.67 μM","human PKK mRNA [2]; HepaRG cells, 1.67 μM antisense oligonucleotide",56% and 68%
same,"percent inhibition of PKK mRNA, 5.00 μM","human PKK mRNA [2]; HepaRG cells, 5.00 μM antisense oligonucleotide",97%
same,IC50,"human PKK mRNA [2]; HepaRG cells, 0.19-5.00 μM",1000 nM and 800 nM
same,percent inhibition of PKK at 0.19 μM,human PKK mRNA [2]; [9],32%
same,percent inhibition of PKK at 0.56 μM,human PKK mRNA [2]; [9],30%
same,percent inhibition of PKK at 1.67 μM,human PKK mRNA [2]; [9],73%
same,percent inhibition of PKK at 5.00 μM,human PKK mRNA [2]; [9],89%
same,IC50,"human PKK mRNA [2]; Table 34, PKK mRNA, HepaRG, electroporation, ~16 h",500 nM
"NC(N)=NCCC[C@@H](N)C(=O)N[C@@H](CCCN=C(N)N)C(=O)N1CCC[C@H]1C(=O)N1C[C@H](O)C[C@H]1C(=O)NCC(=O)N[C@@H](Cc1cccs1)C(=O)N[C@@H](CO)C(=O)N1Cc2ccccc2C[C@@H]1C(=O)N1[C@H](C(=O)N[C@@H](CCCN=C(N)N)C(=O)O)C[C@@H]2CCCC[C@@H]21 [HOE-140, Icatibant, reference compound]","Percentage of OD620 nm of Evans Blue dye compared to the PBS basal control, Plasma",vascular leakage; HOE-140 30 μg ip,5%
"ISIS 482584: 5-10-5 MOE gapmer targeting murine PKK, GGCATATTGGTTTTTGGAAT; SEQ ID NO: 2244 (antisense eG*eG*e[5mC]*eA*eT*dA*dT*dT*dG*dG*dT*dT*dT*dT*dT*eG*eG*eA*eA*eT)",vascular leakage,"vascular leakage; 160 mg/kg/week and 80 mg/kg/week, vs PBS negative control treated with captopril",less vascular leakage
same,"Percentage of OD620 nm of Evans Blue dye compared to the PBS basal control, Plasma",vascular leakage; dose 5 mg/kg,−23%
same,"Percentage of OD620 nm of Evans Blue dye compared to the PBS basal control, Plasma",vascular leakage; dose 10 mg/kg,−20%
same,"Percentage of OD620 nm of Evans Blue dye compared to the PBS basal control, Plasma",vascular leakage; dose 20 mg/kg,−26%
same,"Percentage of OD620 nm of Evans Blue dye compared to the PBS basal control, Plasma",vascular leakage; dose 40 mg/kg,−31%
same,"Percentage of OD620 nm of Evans Blue dye compared to the PBS basal control, Plasma",vascular leakage; dose 80 mg/kg,40%
same,"Percentage of OD620 nm of Evans Blue dye compared to the PBS basal control, Plasma",vascular leakage; dose 160 mg/kg,91%
Tes Ges mCes Aes Aes Gds Tds mCds Tds mCds Tds Tds Gds Gds mCds Aes Aes Aes mCes Ae [ISIS 546254],inhibition of human PKK mRNA,"human PKK mRNA [1]; HepaRG cells, 5,000 nM, electroporation, 24 hours",95%
same,IC50,"human PKK mRNA [2]; 4 point dose response curve (0.19-5.0 μM), HepaRG cells, electroporation",200 nM and 300 nM
